Article PMC11658185, “Analysis of the quadruple lsu mutant reveals molecular determinants of the role of LSU proteins in sulfur assimilation in Arabidopsis” (The Plant Journal, 2024)

Biological target: T1, SiR (sulfite reductase; His-SiR) (Arabidopsis thaliana, UniProt Q9LZ66)
T1 construct: N-terminal His tag, expressed in E. coli Rosetta (DE3), expected size 68 kDa; truncations printed up to residue 642
T1 sequence (Q9LZ66 62-642): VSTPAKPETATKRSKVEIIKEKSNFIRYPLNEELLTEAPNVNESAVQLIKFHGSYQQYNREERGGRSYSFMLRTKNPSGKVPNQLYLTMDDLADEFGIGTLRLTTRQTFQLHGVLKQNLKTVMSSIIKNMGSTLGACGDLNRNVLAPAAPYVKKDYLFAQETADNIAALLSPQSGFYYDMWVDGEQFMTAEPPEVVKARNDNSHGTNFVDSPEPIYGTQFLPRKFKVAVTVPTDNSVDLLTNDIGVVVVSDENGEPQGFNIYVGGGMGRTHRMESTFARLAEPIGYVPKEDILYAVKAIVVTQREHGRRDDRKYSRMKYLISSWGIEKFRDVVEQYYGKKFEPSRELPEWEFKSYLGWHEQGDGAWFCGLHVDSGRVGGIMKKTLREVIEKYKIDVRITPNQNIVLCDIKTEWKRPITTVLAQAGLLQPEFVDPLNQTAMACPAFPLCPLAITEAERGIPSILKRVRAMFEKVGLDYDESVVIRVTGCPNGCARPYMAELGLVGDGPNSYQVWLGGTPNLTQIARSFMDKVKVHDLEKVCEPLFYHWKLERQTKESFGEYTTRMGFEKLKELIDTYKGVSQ
Assay: coupled assay: sulfide trapped as cysteine by O-acetylserine(thiol)lyase, ninhydrin, OD […] nm; sulfite varied
Format: biochemical
Details: pH 7.5, 25 mM HEPES, RT, 1 h; methyl viologen reduced by dithionite as electron donor; O-acetylserine 5 mM; without LSU1

For `O=S(O)O` [sulfite], the “coupled assay: sulfide trapped as cysteine by O-acetylserine(thiol)lyase, ninhyd” value was “Specific activities of the enzyme at various concentrations of: electron donor methyl‐viologen (a), substrate sulfite (b)”.
